Laboratory results reported in US8546440B2, “Substituted bicyclic imidazole derivatives as gamma secretase modulators” (Janssen Pharmaceuticals, Inc., priority 2008, dated 2013).

Assays:
Aβtotal [1] = test: Demonstration of in vivo efficacy: Aβtotal lowering in brain after single oral dose (Table 13); conditions: mouse brain soluble fraction, mean, compared to untreated animals
Text: (§1) To determine whether acute administration of an Aβ42 lowering agent would reduce Aβ42 levels in vivo, non-transgenic rodents, e.g. mice or rats were used. Alternatively, two to three month old Tg2576 mice expressing APP695 containing the “Swedish” variant can be used or a transgenic mouse model developed by Dr. Fred Van Leuven (K. U. Leuven, Belgium) and co-workers, with neuron-specific expression of a clinical mutant of the human amyloid precursor protein [V717I] (Moechars et al., 1999 J. Biol. Chem. 274, 6483). Young transgenic mice have high levels of Aβ in the brain but no detectable Aβ deposition. At approximately 6-8 months of age, the transgenic mice start to display spontaneous, progressive accumulation of β-amyloid (Aβ) in the brain, eventually resulting in amyloid plaques within the subiculum, hippocampus and cortex. Animals treated with the Aβ42 lowering agent were examined and compared to those untreated or treated with vehicle and brain levels of soluble Aβ42 and total Aβ would be quantitated by standard techniques, for example, using ELISA. Treatment periods varied from hours to days and were adjusted based on the results of the Aβ42 lowering once a time course of onset of effect could be established.
(§2) A typical protocol for measuring Aβ42 lowering in vivo is shown but it is only one of many variations that could be used to optimize the levels of detectable Aβ. For example, Aβ42 lowering compounds were formulated in 20% of Captisol® (a sulfobutyl ether of β-cyclodextrin) in water or 20% hydroxypropyl β cyclodextrin. The Aβ42 lowering agents were administered as a single oral dose or by any acceptable route of administration to overnight fasted animals. After four hours, the animals were sacrificed and Aβ42 levels were analysed.
(§3) Blood was collected by decapitation and exsanguinations in EDTA-treated collection tubes. Blood was centrifuged at 1900 g for 10 minutes at 4° C. and the plasma recovered and flash frozen for later analysis. The brain was removed from the cranium and hindbrain. The cerebellum was removed and the left and right hemisphere were separated. The left hemisphere was stored at −18° C. for quantitative analysis of test compound levels. The right hemisphere was rinsed with phosphate-buffered saline (PBS) buffer and immediately frozen on dry ice and stored at −80° C. until homogenization for biochemical assays.
Mouse brains were resuspended in 10 volumes of 0.4% DEA (diethylamine)/50 mM NaCl pH 10 (for non-transgenic animals) or 0.1% 3-[3-cholamidopropyl)-dimethyl-ammonio]-1-propanesulfonate (CHAPS) in tris buffered saline (TBS) (for transgenic animals) containing protease inhibitors (Roche-11873580001 or 04693159001) per gram of tissue, e.g. for 0.158 g brain, add 1.58 ml of 0.4% DEA. All samples were sonicated for 30 seconds on ice at 20% power output (pulse mode). Homogenates were centrifuged at 221.300×g for 50 min. The resulting high speed supernatants were then transferred to fresh tubes and were optionally further purified before the next step. A portion of the supernatant was neutralized with 10% 0.5 M Tris-HCl and this was used to quantify Aβtotal. […]
In this model at least 20% Aβ42 lowering compared to untreated animals would be advantageous.

Aβ42 [2] = test: Screening for γ-secretase-modulating activity, Method 1: Aβ42 sandwich ELISA in supernatant of SKNBE2 cells carrying APP 695 wild type (Tables 12a, 12b); assay type: cell-based
Method in brief: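 Aβ42 levels in the supernatant were measured by ELISA with 450 nm colorimetric read-out after 18 h compound exposure of wild-type APP695 SKNBE2 cells plated one day earlier. IC50 was fitted with a 4-parameter model, either with fixed top/bottom and a Hill slope of 1, or as averaged values from % of vehicle control; WST-1 was used to flag cytotoxicity.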

Aβtotal [3] = test: Screening for γ-secretase-modulating activity, Method 1: Aβtotal sandwich ELISA in supernatant of SKNBE2 cells carrying APP 695 wild type (Tables 12a, 12b); assay type: cell-based
Method in brief: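 Aβtotal in conditioned medium was measured by 6E10/biotin-4G8 sandwich ELISA with fluorogenic peroxidase read-out. Cells were wild-type APP 695 SKNBE2, treated 18 hours in glutamine-supplemented Ultraculture. IC50 came from 4-parameter fits of inhibition, or percent of control, against concentration; toxicity was checked by WST-1.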

Aβ42 [4] = test: Demonstration of in vivo efficacy: Aβ42 lowering in brain after single oral dose (Table 13); conditions: mouse brain soluble fraction, ELISA, mean, compared to untreated animals
Text: as §1, §2, §3
Mouse brains were resuspended in 10 volumes of 0.4% DEA (diethylamine)/50 mM NaCl pH 10 (for non-transgenic animals) or 0.1% 3-[3-cholamidopropyl)-dimethyl-ammonio]-1-propanesulfonate (CHAPS) in tris buffered saline (TBS) (for transgenic animals) containing protease inhibitors (Roche-11873580001 or 04693159001) per gram of tissue, e.g. for 0.158 g brain, add 1.58 ml of 0.4% DEA. All samples were sonicated for 30 seconds on ice at 20% power output (pulse mode). Homogenates were centrifuged at 221.300×g for 50 min. The resulting high speed supernatants were then transferred to fresh tubes and were optionally further purified before the next step. A portion of the supernatant was neutralized with 10% 0.5 M Tris-HCl and this was used to quantify Aβtotal.
The obtained supernatants were purified with Water Oasis HLB reverse phase columns (Waters Corp., Milford, Mass.) to remove non-specific immunoreactive material from the brain lysates prior subsequent Aβ detection. Using a vacuum manifold, all solutions were passed through the columns at a rate of approximately 1 ml per minute, so the vacuum pressure was adjusted accordingly throughout the procedure. Columns were preconditioned with 1 ml of 100% MeOH, before equilibration with 1 ml of H2O. Non-neutralized brain lysates were loaded onto the columns. The loaded samples were then washed twice with the first wash performed with 1 ml of 5% MeOH, and the second wash with 1 ml of 30% MeOH. Finally, the Aβ was eluted from the columns and into 100×30 mm glass tubes, with a solution of 90% MeOH with 2% NH4OH. […]

[5] = Homo sapiens, Method 1, Table 12a, SKNBE2 cells carrying APP 695 wild type, compounds 18 hours, ELISA, curve top and bottom fixed to 100 and 0, hill slope 1
[6] = Homo sapiens, Table 12b, Method 1, SKNBE2 cells carrying APP 695 wild type, cell supernatant ELISA, averaged IC50 values, percentage of control vs log concentration
[7] = Homo sapiens, Table 12b, Method 1, SKNBE2 cells carrying APP 695 wild type, cell supernatant ELISA, averaged IC50 values
[8] = Table 12b, Method 1, SKNBE2 cells carrying APP 695 wild type, cell supernatant ELISA, averaged IC50 values, percentage of control vs log concentration
[9] = Table 12b, Method 1, SKNBE2 cells carrying APP 695 wild type, cell supernatant ELISA, averaged IC50 values
[10] = Method 1, Table 12a, SKNBE2 cells carrying APP 695 wild type, compounds 18 hours, ELISA, curve top and bottom fixed to 100 and 0, hill slope 1

| SMILES | Aβtotal (% Ctrl)_Mean (Aβtotal [1]) [% Ctrl] | IC50 (Aβ42 [2]; [5]) [nM] | IC50 (Aβ42 [2]; [6]) [nM] | IC50 (Aβtotal [3]; [5]) [nM] | IC50 (Aβtotal [3]; [7]) [nM] | Aβ42 (% Ctrl)_Mean (Aβ42 [4]) [% Ctrl] | IC50 (Aβ42 [2]; [8]) [nM] | IC50 (Aβtotal [3]; [9]) [nM] | IC50 (Aβ42 [2]; [10]) [nM] | IC50 (Aβtotal [3]; [10]) [nM] |
| --- | --- | --- | --- | --- | --- | --- | --- | --- | --- | --- |
| COc1cc(Nc2cccn3c(C)c(-c4ccccc4F)nc23)ccc1-n1cnc(C)c1 [Compound 18] | 101 | 25 | 25 | > 10000 | > 10000 | 73 |  |  |  |  |
| Cc1ncn(-c2ccc(Nc3cccn4cc(-c5cc(C(F)(F)F)ccc5C)nc34)cc2F)n1 [Compound 74] | 102 |  | 123 |  | > 3020 | 95 |  |  |  |  |
| COc1cccc(-c2nc3c(Nc4ccc(-n5cncn5)c(OC)c4)cccn3c2C)c1 [Compound 7] | 105 | 37 | 36 | > 1000 | > 3020 | 68 |  |  |  |  |
| COc1cc(Nc2cccn3cc(Cc4ccc(F)cc4)nc23)ccc1-n1cnc(C)c1 [Compound 3] | 95 | 30 | 148 | > 1000 | 12600 | 56 |  |  |  |  |
| COc1cc(Nc2cccn3c(-c4ccc(F)cc4)cnc23)ccc1-n1cnc(C)c1 [Compound 8] | 96 | 541 | 562 | > 20000 | > 20000 | 88 |  |  |  |  |
| COc1ccccc1-c1cn2cccc(Nc3ccc(-n4cnc(C)c4)c(OC)c3)c2n1 [Compound 32] | 113 | 114 | 105 | > 5000 | > 5010 | 81 |  |  |  |  |
| COc1cccc(-c2nc3c(Nc4ccc(-n5cnc(C)c5)c(OC)c4)cccn3c2C)c1 [Compound 34] | 100 | 9 | 9 | > 3000 | > 3020 | 63 |  |  |  |  |
| COc1cc(Nc2cccn3c(C)c(-c4ccc(F)cc4F)nc23)ccc1-n1cnc(C)c1 [Compound 26] | 94 | 11 | 11 | > 3000 | > 3020 | 75 |  |  |  |  |
| COc1ccc(C)c(-c2cn3cccc(Nc4ccc(-n5cnc(C)n5)c(F)c4)c3n2)c1 [Compound 94] | 101 |  | 115 |  | > 3020 | 96 |  |  |  |  |
| COc1cc(Nc2cccn3cc(-c4ccc(N5CCOCC5)cc4)nc23)ccc1-n1cnc(C)c1 [Compound 40] | 99 | 62 | 56 | > 3000 | > 3020 | 80 |  |  |  |  |
| CCN(CC)c1ccc(-c2cn3cccc(Nc4ccc(-n5cnc(C)c5)c(OC)c4)c3n2)cc1 [Compound 39] | 108 | 75 | 68 | > 3000 | > 3020 | 82 |  |  |  |  |
| Cc1ncn(-c2ccc(Nc3cccn4cc(-c5ccc(F)cc5C)nc34)cn2)n1 [Compound 98] | 97 |  |  |  |  | 84 | 32 | > 3020 |  |  |
| Cc1ncn(-c2ccc(Nc3cccn4c(C)c(-c5ccccc5Cl)nc34)nc2)n1 [Compound 83] | 104 |  |  |  |  | 89 | 355 | > 10000 |  |  |
| Cc1ncn(-c2ccc(Nc3cccn4cc(-c5ccccc5C)nc34)cn2)n1 [Compound 86] | 96 |  |  |  |  | 86 | 117 | > 10000 |  |  |
| CCCc1nc2c(Nc3ccc(-n4cnc(C)c4)c(OC)c3)cccn2c1CC [Compound 10] | 104 |  |  |  |  | 67 | 51 | > 3020 | 54 | > 3000 |
| COc1cc(Nc2cccn3cc(-c4ccc(F)cc4C)nc23)ccc1-n1cnc(C)c1 [Compound 52] | 91 | 10 | 10 | > 3000 | > 3020 | 66 |  |  |  |  |
| Cc1ncn(-c2ccc(Nc3cccn4c(C)c(-c5ccccc5Cl)nc34)cn2)n1 [Compound 87] | 101 |  |  |  |  | 86 | 25 | > 10000 |  |  |
